Experimental data taken from ChEMBL document CHEMBL1201862, “PubChem BioAssay data set” (2004).
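Each compound was tested at five concentrations against cells in 96-well plates for 48 hours. Abbreviation: GI50, concentration required for 50% inhibition of growth.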 The source made the active and inactive calls. Cut-off read from the data, not from the text of the source: active = GI50 up to about 1.1 µM and inactive = higher.

Key:
Test in all cases: inhibition of tumour cell growth, NCI panel, 48 h
OVCAR-5 = test system: OVCAR-5
A498 = test system: A498
HOP-62 = test system: HOP-62
Hs-578T = test system: Hs-578T
CAKI-1 = test system: CAKI-1
NCI-H226 = test system: NCI-H226
RPMI-8226 = test system: RPMI-8226
ACHN = test system: ACHN
SF-295 = test system: SF-295
NCI-H23 = test system: NCI-H23
BT-549 = test system: BT-549
HT-29 = test system: HT-29
PC-3 = test system: PC-3
COLO 205 = test system: COLO 205
MCF7 = test system: MCF7
T47D = test system: T47D
LOX IMVI = test system: LOX IMVI
HOP-92 = test system: HOP-92
K562 = test system: K562
SK-MEL-28 = test system: SK-MEL-28
CCRF-CEM = test system: CCRF-CEM
SNB-75 = test system: SNB-75
KM12 = test system: KM12
HL-60 = test system: HL-60
M14 = test system: M14
NCI-H460 = test system: NCI-H460
SF-539 = test system: SF-539
DU-145 = test system: DU-145
OVCAR-3 = test system: OVCAR-3
UACC-62 = test system: UACC-62
HCC 2998 = test system: HCC 2998
SK-MEL-5 = test system: SK-MEL-5
786-0 = test system: 786-0
A549 = test system: A549
U-251 = test system: U-251
EKVX = test system: EKVX
IGROV-1 = test system: IGROV-1
SF-268 = test system: SF-268
NCI-H522 = test system: NCI-H522
SN12C = test system: SN12C
HCT-15 = test system: HCT-15
SNB-19 = test system: SNB-19
SK-MEL-2 = test system: SK-MEL-2
TK-10 = test system: TK-10
SR = test system: SR
MOLT-4 = test system: MOLT-4
RXF 393 = test system: RXF 393
SW-620 = test system: SW-620
Malme-3M = test system: Malme-3M
UACC-257 = test system: UACC-257
HCT-116 = test system: HCT-116
OVCAR-8 = test system: OVCAR-8
UO-31 = test system: UO-31
OVCAR-4 = test system: OVCAR-4
NCI/ADR-RES = test system: NCI/ADR-RES
MDA-MB-435 = test system: MDA-MB-435
MDA-MB-231 = test system: MDA-MB-231

Measured: GI50

Cc1cccc2c1C/C(=C\c1cccc(C)c1C(=O)O)C2=O
> 100 µM: HCT-15
inactive: OVCAR-5 > 100 µM | A498 > 100 µM | HOP-62 > 100 µM | Hs-578T > 100 µM | CAKI-1 > 100 µM | NCI-H226 > 100 µM | RPMI-8226 46.6 µM | ACHN > 100 µM | SF-295 > 100 µM | NCI-H23 > 100 µM | BT-549 > 100 µM | HT-29 70.1 µM | PC-3 > 100 µM | COLO 205 82.6 µM | MCF7 > 100 µM | T47D > 100 µM | LOX IMVI > 100 µM | HOP-92 > 100 µM | K562 > 100 µM | SK-MEL-28 > 100 µM | CCRF-CEM 84.9 µM | SNB-75 > 100 µM | KM12 > 100 µM | HL-60 > 100 µM | M14 > 100 µM | NCI-H460 > 100 µM | SF-539 > 100 µM | DU-145 > 100 µM | OVCAR-3 > 100 µM | UACC-62 > 100 µM | HCC 2998 > 100 µM | SK-MEL-5 71.6 µM | 786-0 > 100 µM | A549 > 100 µM | U-251 > 100 µM | EKVX > 100 µM | IGROV-1 > 100 µM | SF-268 > 100 µM | NCI-H522 > 100 µM | SN12C > 100 µM | SNB-19 > 100 µM | SK-MEL-2 > 100 µM | TK-10 > 100 µM | SR 54.7 µM | MOLT-4 61.1 µM | RXF 393 > 100 µM | SW-620 > 100 µM | Malme-3M > 100 µM | UACC-257 > 100 µM | HCT-116 > 100 µM | OVCAR-8 > 100 µM | UO-31 > 100 µM | OVCAR-4 > 100 µM | NCI/ADR-RES > 100 µM | MDA-MB-435 > 100 µM

COc1ccc(Nc2nc3cc(C(F)(F)F)ccc3nc2C(=O)O)cc1OC
35.6 µM: HCT-15
inactive: OVCAR-5 58.9 µM | A498 30.7 µM | HOP-62 35 µM | Hs-578T 52.2 µM | CAKI-1 27 µM | NCI-H226 16.4 µM | RPMI-8226 25.8 µM | ACHN 26.7 µM | SF-295 10.5 µM | NCI-H23 26.4 µM | BT-549 26.3 µM | HT-29 40.2 µM | PC-3 36.9 µM | COLO 205 27.9 µM | MCF7 45.2 µM | T47D 27.7 µM | LOX IMVI 28.9 µM | HOP-92 19 µM | K562 28.6 µM | SK-MEL-28 47.5 µM | CCRF-CEM 16.2 µM | SNB-75 62.7 µM | KM12 27.8 µM | HL-60 28.4 µM | M14 37.4 µM | NCI-H460 37.6 µM | SF-539 23.3 µM | DU-145 15.4 µM | OVCAR-3 17.5 µM | UACC-62 23.7 µM | HCC 2998 35.7 µM | SK-MEL-5 22.4 µM | 786-0 31 µM | A549 41.3 µM | U-251 35.8 µM | EKVX 30.8 µM | IGROV-1 36.5 µM | SF-268 42.8 µM | NCI-H522 30.4 µM | SN12C 21.5 µM | SNB-19 24 µM | SK-MEL-2 11.1 µM | TK-10 34.4 µM | SR 25.1 µM | MOLT-4 20.1 µM | RXF 393 23.3 µM | SW-620 47.2 µM | Malme-3M 42.9 µM | MDA-MB-231 29 µM | UACC-257 29.6 µM | HCT-116 27.4 µM | OVCAR-8 39.5 µM | UO-31 28.2 µM | OVCAR-4 35.4 µM | NCI/ADR-RES 30.8 µM | MDA-MB-435 33.8 µM
